pIC50: −log10 of the molar value.
Molecular target: Tyrosine-protein kinase Lck (Homo sapiens, UniProt P06239)
Experiment: Ability to inhibit autophosphorylation of immunopurified p56Ick

Sequence of Tyrosine-protein kinase Lck (P06239 whole entry): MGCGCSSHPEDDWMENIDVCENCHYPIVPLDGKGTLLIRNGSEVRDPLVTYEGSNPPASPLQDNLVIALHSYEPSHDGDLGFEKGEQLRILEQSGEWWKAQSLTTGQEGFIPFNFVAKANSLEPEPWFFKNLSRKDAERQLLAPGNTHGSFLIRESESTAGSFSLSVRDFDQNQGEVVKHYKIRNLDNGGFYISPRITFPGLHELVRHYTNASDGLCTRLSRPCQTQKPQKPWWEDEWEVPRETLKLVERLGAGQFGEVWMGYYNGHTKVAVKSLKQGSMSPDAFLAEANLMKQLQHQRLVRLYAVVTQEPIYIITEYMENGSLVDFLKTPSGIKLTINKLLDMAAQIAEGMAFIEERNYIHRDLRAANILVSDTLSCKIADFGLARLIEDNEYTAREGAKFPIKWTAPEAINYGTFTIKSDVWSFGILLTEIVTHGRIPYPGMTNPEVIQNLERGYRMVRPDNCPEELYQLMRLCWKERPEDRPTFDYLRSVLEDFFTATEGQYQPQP

Row | SMILES | pIC50
1 | N=c1oc2cc(O)c(O)cc2cc1C(N)=O | < 2.70
2 | N#C/C(=C\c1cc(O)c(O)c(O)c1)C(N)=O | 2.70
3 | N=c1oc2cc(O)ccc2cc1C(N)=O | < 2.70
4 | N#C/C(=C\c1cccc(O)c1)C(N)=O | 2.82
5 | COC(=O)c1ccc2c(O)c(O)ccc2c1 | 4.60
6 | N#C/C(=C\c1ccc(O)cc1)C(N)=O | 3.00
7 | N#C/C(=C\c1cc(O)cc(O)c1)C(N)=O | 3.30
8 | COC(=O)c1cc2ccc(O)c(O)c2cn1 | 6.70
9 | N=c1oc2ccc(O)cc2cc1C(N)=O | 4.00

Further compounds by rising pIC50, results first:

Row | pIC50 | SMILES
10 | 2.82 | N=c1oc2ccccc2cc1C(N)=O
11 | 3.12 | N=c1oc2c(O)c(O)ccc2cc1C(N)=O
12 | 3.21 | NC(=O)c1cnc2cc(O)c(O)cc2c1
13 | 4.00 | N=c1oc2c(O)cccc2cc1C(N)=O
14 | 4.59 | NC(=O)c1ccc2cc(O)c(O)cc2c1
15 | 4.66 | N#C/C(=C\c1ccc(O)c(O)c1)C(N)=O
